Results as given in paper PMC6530601, “Rapid and Scalable Plant-Based Production of a Potent Plasmin Inhibitor Peptide” (Frontiers in Plant Science, 2019).
Bridge positions count the residues as written; N and C are the ends. Peptide text beside a SMILES is read from it.

What was measured:
native human plasmin [1] = molecular target: T1, native human plasmin (Homo sapiens, UniProt P00747); assay: Plasmin inhibitory assay (chromogenic peptide substrate); format: biochemical; conditions: plant-derived peptide; 1 nM native human plasmin, 30 min pre-incubation, 0.1 M Tris-HCl, pH 8.0, 0.1 M NaCl, 0.005% Triton X-100; 100 μM Acetyl-Arg-Met(sulphone)-Tyr-Arg-pNA, 405 nm over 7 min; Morrison equation; n = 3 independent assays; read-out: inhibition constant (Ki)
T1 construct: incubated with 1 nM native human plasmin (Sigma-Aldrich); purchased Sigma-Aldrich
Method: (§1) A serial dilution of plant-derived [T4Y,I7R]SFTI-1 was incubated with 1 nM native human plasmin (Sigma-Aldrich) for 30 min in assay buffer (0.1 M Tris-HCl, pH 8.0, 0.1 M NaCl, and 0.005% Triton X-100) in low binding 96-well plates (Corning). […] The inhibition constant (Ki) was determined from three independent assays by the Morrison equation and non-linear regression using GraphPad Prism 6.

native human plasmin [2] = molecular target: T1, native human plasmin; conditions: substrate of plasmin assay; determination not described, no reference given; cited from earlier work
Method: as §1, with “non-lin ...” for “non-linear regression using GraphPad Prism 6.”

T1 sequence (P00747 581-810 limits assumed): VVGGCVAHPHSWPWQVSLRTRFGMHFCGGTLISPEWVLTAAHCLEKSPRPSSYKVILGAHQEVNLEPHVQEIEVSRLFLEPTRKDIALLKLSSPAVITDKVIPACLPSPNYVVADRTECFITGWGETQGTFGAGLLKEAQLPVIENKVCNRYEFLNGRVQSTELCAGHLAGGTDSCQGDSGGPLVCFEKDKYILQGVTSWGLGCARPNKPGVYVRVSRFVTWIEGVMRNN
T1 sequence (P00747 97-580 partner limits assumed): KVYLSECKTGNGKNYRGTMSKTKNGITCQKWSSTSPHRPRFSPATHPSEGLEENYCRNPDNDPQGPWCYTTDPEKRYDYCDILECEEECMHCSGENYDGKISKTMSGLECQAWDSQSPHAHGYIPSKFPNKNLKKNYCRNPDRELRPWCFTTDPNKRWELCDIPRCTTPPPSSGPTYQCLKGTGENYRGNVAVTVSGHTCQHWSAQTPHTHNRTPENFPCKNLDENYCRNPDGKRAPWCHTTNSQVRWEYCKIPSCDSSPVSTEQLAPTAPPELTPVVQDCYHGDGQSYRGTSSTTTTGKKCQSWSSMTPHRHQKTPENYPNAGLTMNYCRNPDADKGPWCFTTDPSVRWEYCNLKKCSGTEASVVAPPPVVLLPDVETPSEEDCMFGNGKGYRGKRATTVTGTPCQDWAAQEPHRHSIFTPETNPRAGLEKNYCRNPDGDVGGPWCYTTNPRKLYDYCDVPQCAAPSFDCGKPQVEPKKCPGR

Row | Compound | Ki (native human plasmin [1]) | Km (native human plasmin [2])
1 | CC[C@H](C)[C@@H]1NC(=O)[C@@H]2CCCN2C(=O)[C@@H]2CCCN2C(=O)[C@H](CCCNC(=N)N)NC(=O)[C@H](CO)NC(=O)[C@H](CCCCN)NC(=O)[C@H](Cc2ccc(O)cc2)NC(=O)[C@@H]2CSSC[C@H](NC1=O)C(=O)N[C@@H](Cc1ccccc1)C(=O)N1CCC[C@H]1C(=O)N[C@@H](CC(=O)O)C(=O)NCC(=O)N[C@@H](CCCNC(=N)N)C(=O)N2 [[T4Y,I7R]SFTI-1] (cyclo(CFPDGRCYKSRPPI); disulfide 1-7) | 25 ± 4 pM | –
2 | Acetyl-Arg-Met(sulphone)-Tyr-Arg-pNA [colorimetric peptide substrate of plasmin] | – | 23.5 µM
